Experimental data reported in patent US20140187784A1, “RADIOACTIVE QUINOLINONE DERIVATIVE AND PHARMACEUTICAL DRUG COMPRISING THE SAME” (Nihon Medi-Physics Co., Ltd., priority 2012, published 2014).

Test: Pharmacokinetic and distribution experiment (radioactivity in blood and excised organs after tail vein injection)
Format: in vivo
Details: ddy mice; for Adrenal gland/Blood ratio / Radioactivity Distribution, Blood / Radioactivity Distribution, Femur / Radioactivity Distribution, Heart / Radioactivity Distribution, Large intestine / Radioactivity Distribution, Lung / Radioactivity Distribution, Small intestine / Radioactivity Distribution, Spleen / Radioactivity Distribution, Stomach / Adrenal gland/Kidney ratio / Radioactivity Distribution, Adrenal gland / Radioactivity Distribution, Kidney / Radioactivity Distribution, Liver / Radioactivity Distribution, Pancreas / Adrenal gland/Liver ratio: tail vein injection; for Adrenal gland/Blood ratio / Radioactivity Distribution, Blood / Radioactivity Distribution, Femur / Radioactivity Distribution, Heart / Radioactivity Distribution, Large intestine / Radioactivity Distribution, Lung / Radioactivity Distribution, Small intestine / Radioactivity Distribution, Spleen / Radioactivity Distribution, Stomach: 14.8 kBq (4 μCi); for Adrenal gland/Kidney ratio / Radioactivity Distribution, Adrenal gland / Radioactivity Distribution, Kidney / Radioactivity Distribution, Liver / Radioactivity Distribution, Pancreas: 14.8 kBq
Method: (§1) The HPLC fraction of [^125I]PAY15 obtained in Example 3 was concentrated and then diluted with saline. The resulting solution was used in administration. 100 μL of the solution (18.5 kBq (0.5 μCi)) was injected to the tail vein of each of five ddy mice (6 weeks old). Five minutes later, each mouse was decapitated, and blood was collected. Then, organs (adrenal gland, pancreas, heart, lung, stomach, small intestine, large intestine, liver, spleen, kidney, and thyroid gland) were excised. After measurement of their weights, the radioactivities of blood and each excised organ were measured. Also, the point in time when each mouse was decapitated was changed to 5, 15, 30, 60, and 120 minutes later to perform similar operation.
The HPLC fraction of [^125I]PAY21 obtained in Example 6 was concentrated and then diluted with saline. The resulting solution was used in administration to perform the same operation as in Evaluation 1.
as §1, with “[^18F]PAY27 obtained” for “The HPLC fraction of [^125I]PAY15 obtained”, “Example 10” for “Example 3”, “was” for “was concentrated and then”, “solution (14.8” for “solution (18.5”, “kBq (4” for “kBq (0.5”, “and thigh bone)” for “and thyroid gland)”
as §1, with “[^18F]PAY54 obtained” for “The HPLC fraction of [^125I]PAY15 obtained”, “Example 13” for “Example 3”, “was” for “was concentrated and then”, “solution (14.8” for “solution (18.5”, “kBq (4” for “kBq (0.5”, “and thigh bone)” for “and thyroid gland)”

## O=C1CCc2cc(-c3cncc(OCC[18F])c3)cc3c2N1CC3 [[^18F]PAY54, 8-(5-(2-[^18F]fluoroethyloxy)pyridin-3-yl)-1,2,5,6-tetrahydro-4H-pyrrolo[3,2,1-ij]quinolin-4-one]
5 minutes after administration
  radioactivity accumulation in the adrenal gland compared with blood and the kidney: high radioactivity accumulation
5 min
  Adrenal gland/Blood ratio: 1.55 ± 0.43
  Radioactivity Distribution, Blood: 4.5 ± 0.2 % dose/g
  Radioactivity Distribution, Femur: 1.9 ± 0.2 % dose/g
  Radioactivity Distribution, Heart: 4.5 ± 0.5 % dose/g
  Radioactivity Distribution, Large intestine: 3.5 ± 0.3 % dose/g
  Radioactivity Distribution, Lung: 4.6 ± 0.2 % dose/g
  Radioactivity Distribution, Small intestine: 5.6 ± 0.3 % dose/g
  Radioactivity Distribution, Spleen: 3.6 ± 0.2 % dose/g
  Radioactivity Distribution, Stomach: 4.6 ± 1.5 % dose/g
  Adrenal gland/Kidney ratio: 1.60 ± 0.50
  Radioactivity Distribution, Adrenal gland: 7.0 ± 2.1 % dose/g
  Radioactivity Distribution, Kidney: 4.4 ± 0.5 % dose/g
  Radioactivity Distribution, Liver: 7.5 ± 0.5 % dose/g
  Radioactivity Distribution, Pancreas: 3.4 ± 0.3 % dose/g
  Adrenal gland/Liver ratio: 0.95 ± 0.34
15 min
  Adrenal gland/Blood ratio: 0.86 ± 0.15
  Radioactivity Distribution, Blood: 4.5 ± 0.2 % dose/g
  Radioactivity Distribution, Femur: 2.3 ± 0.1 % dose/g
  Radioactivity Distribution, Heart: 3.8 ± 0.2 % dose/g
  Radioactivity Distribution, Large intestine: 6.2 ± 0.5 % dose/g
  Radioactivity Distribution, Lung: 3.7 ± 0.2 % dose/g
  Radioactivity Distribution, Small intestine: 5.3 ± 0.6 % dose/g
  Radioactivity Distribution, Spleen: 3.1 ± 0.2 % dose/g
  Radioactivity Distribution, Stomach: 4.9 ± 0.4 % dose/g
  Adrenal gland/Kidney ratio: 1.11 ± 0.15
  Radioactivity Distribution, Adrenal gland: 3.9 ± 0.8 % dose/g
  Radioactivity Distribution, Kidney: 3.5 ± 0.6 % dose/g
  Radioactivity Distribution, Liver: 6.0 ± 0.4 % dose/g
  Radioactivity Distribution, Pancreas: 2.7 ± 0.2 % dose/g
  Adrenal gland/Liver ratio: 0.64 ± 0.13
30 min
  Adrenal gland/Blood ratio: 0.82 ± 0.13
  Radioactivity Distribution, Blood: 4.3 ± 0.4 % dose/g
  Radioactivity Distribution, Femur: 2.7 ± 0.3 % dose/g
  Radioactivity Distribution, Heart: 3.7 ± 0.5 % dose/g
  Radioactivity Distribution, Large intestine: 8.5 ± 0.5 % dose/g
  Radioactivity Distribution, Lung: 3.4 ± 0.2 % dose/g
  Radioactivity Distribution, Small intestine: 5.0 ± 0.9 % dose/g
  Radioactivity Distribution, Spleen: 3.1 ± 0.1 % dose/g
  Radioactivity Distribution, Stomach: 3.5 ± 0.2 % dose/g
  Adrenal gland/Kidney ratio: 0.98 ± 0.15
  Radioactivity Distribution, Adrenal gland: 3.5 ± 0.4 % dose/g
  Radioactivity Distribution, Kidney: 3.6 ± 0.4 % dose/g
  Radioactivity Distribution, Liver: 5.7 ± 0.6 % dose/g
  Radioactivity Distribution, Pancreas: 2.6 ± 0.2 % dose/g
  Adrenal gland/Liver ratio: 0.61 ± 0.12
60 min
  Adrenal gland/Blood ratio: 1.16 ± 0.15
  Radioactivity Distribution, Blood: 3.5 ± 0.5 % dose/g
  Radioactivity Distribution, Femur: 3.4 ± 0.7 % dose/g
  Radioactivity Distribution, Heart: 2.9 ± 0.5 % dose/g
  Radioactivity Distribution, Large intestine: 7.7 ± 1.2 % dose/g
  Radioactivity Distribution, Lung: 2.9 ± 0.4 % dose/g
  Radioactivity Distribution, Small intestine: 3.7 ± 0.7 % dose/g
  Radioactivity Distribution, Spleen: 2.3 ± 0.6 % dose/g
  Radioactivity Distribution, Stomach: 4.3 ± 0.3 % dose/g
  Adrenal gland/Kidney ratio: 1.40 ± 0.34
  Radioactivity Distribution, Adrenal gland: 4.1 ± 1.0 % dose/g
  Radioactivity Distribution, Kidney: 3.0 ± 0.3 % dose/g
  Radioactivity Distribution, Liver: 5.0 ± 0.3 % dose/g
  Radioactivity Distribution, Pancreas: 2.4 ± 0.4 % dose/g
  Adrenal gland/Liver ratio: 0.82 ± 0.19
120 min
  Adrenal gland/Blood ratio: 0.61 ± 0.63
  Radioactivity Distribution, Blood: 2.8 ± 0.2 % dose/g
  Radioactivity Distribution, Femur: 4.5 ± 0.1 % dose/g
  Radioactivity Distribution, Heart: 2.4 ± 0.4 % dose/g
  Radioactivity Distribution, Large intestine: 7.9 ± 0.7 % dose/g
  Radioactivity Distribution, Lung: 2.2 ± 0.2 % dose/g
  Radioactivity Distribution, Small intestine: 2.4 ± 0.1 % dose/g
  Radioactivity Distribution, Spleen: 2.0 ± 0.2 % dose/g
  Radioactivity Distribution, Stomach: 3.5 ± 0.6 % dose/g
  Adrenal gland/Kidney ratio: 0.58 ± 0.54
  Radioactivity Distribution, Adrenal gland: 2.0 ± 1.5 % dose/g
  Radioactivity Distribution, Kidney: 2.8 ± 0.4 % dose/g
  Radioactivity Distribution, Liver: 4.7 ± 0.6 % dose/g
  Radioactivity Distribution, Pancreas: 1.7 ± 0.2 % dose/g
  Adrenal gland/Liver ratio: 0.38 ± 0.41
